The source of these data is patent US12319655B2, “RAF kinase inhibitors and methods of use thereof” (Deciphera Pharmaceuticals, LLC, priority 2021, dated 2025).

Each structure is given as a SMILES string. Like-named read-outs stand apart in the source and are kept apart here. Some results are limits rather than exact numbers.

The target in assay [1] is A-Raf kinase (SEQ. ID No: 1) (Homo sapiens (Human), UniProt P10398, Y301D/Y302D). Description: Biochemical Assay for A-Raf (1). The note with it: Table J. How it is done:
Biochemical Assay for A-Raf (1)
(§1) Activity of A-Raf kinase (SEQ. ID No: 1) was determined spectroscopically using a coupled pyruvate kinase/lactate dehydrogenase assay that continuously monitors the ATP hydrolysis-dependent oxidation of NADH (e.g., Schindler et al., Science, 2000, 289, 1938-1942). Assays were conducted in 384-well plates (100 μL final volume) using 5.55 nM A-Raf (Sigma), 1.5 units pyruvate kinase, 2.1 units lactate dehydrogenase, 1 mM phosphoenol pyruvate, 0.28 mM NADH, 30.1 nM MEK (SignalChem), and 1 mM ATP in assay buffer (100 mM Tris, pH 7.5, 15 mM MgCl2, 0.5 mM DTT, 0.1% octyl-glucoside, 0.002% (w/v) BSA, and 0.002% Triton X-100). Inhibition of A-Raf was measured by adding serial diluted test compound (final assay concentration of 1% DMSO). A decrease in absorption at 340 nm was monitored continuously for 6 h at 30° C. on a multi-mode microplate reader (BioTek). The reaction rate was calculated using the 4 to 5 h time frame. The reaction rate at each concentration of compound was converted to percent inhibition using controls (i.e., reaction with no test compound and reaction with a known inhibitor) and IC50 values were calculated by fitting a four-parameter sigmoidal curve to the data using Prism (GraphPad software).

In assay [2] the target is C-Raf kinase (SEQ. ID NO: 3) (Homo sapiens (Human), UniProt P04049, Y340D/Y341D). The assay is described as follows: Biochemical Assay for C-Raf (1). As to conditions: Table J. As for the experimental part:
Biochemical Assay for C-Raf (1)
as §1, with “C-Raf” for “A-Raf”, “NO: 3)” for “No: 1)”, “0.43” for “5.55”, “Ph” for “pH”

For assay [3], the target named is B-Raf (V600E) (SEQ. ID NO: 4) kinase (Homo sapiens (Human), UniProt P15056, V600E). Description: Biochemical Assay for B-Raf (V600E) (1). As to conditions: Table J, BRAF V600E. As for the experimental part:
Biochemical Assay for B-Raf (V600E) (1)
Activity of B-Raf (V600E) (SEQ. ID NO: 4) kinase was determined spectroscopically using a coupled pyruvate kinase/lactate dehydrogenase assay that continuously monitors the ATP hydrolysis-dependent oxidation of NADH (e.g., Schindler et al., Science, 2000, 289, 1938-1942). Assays were conducted in 384-well plates (100 μL final volume) using 0.03 nM B-Raf (SignalChem), 1.5 units pyruvate kinase, 2.1 units lactate dehydrogenase, 1 mM phosphoenol pyruvate, 0.28 mM NADH, 30.1 nM MEK (SignalChem), and 1 mM ATP in assay buffer (100 mM Tris, Ph 7.5, 15 mM MgCl2, 0.5 mM DTT, 0.1% octyl-glucoside, 0.002% (w/v) BSA, and 0.002% Triton X-100). Inhibition of B-Raf (V600E) was measured by adding serial diluted test compound (final assay concentration of 1% DMSO). A decrease in absorption at 340 nm was monitored continuously for 6 h at 30° C. on a multi-mode microplate reader (BioTek). The reaction rate was calculated using the 3 to 4 h time frame. The reaction rate at each concentration of compound was converted to percent inhibition using controls (i.e., reaction with no test compound and reaction with a known inhibitor) and IC50 values were calculated by fitting a four-parameter sigmoidal curve to the data using Prism (GraphPad software).

Assay [4] concerns the target B-Raf kinase (SEQ. ID NO: 2) (Homo sapiens (Human), UniProt P15056). The assay is described as follows: Biochemical Assay for B-Raf (1). As to conditions: Table J. As for the experimental part: Biochemical Assay for B-Raf (1)
Activity of B-Raf kinase (SEQ. ID NO: 2) was determined spectroscopically using a coupled pyruvate kinase/lactate dehydrogenase assay that continuously monitors the ATP hydrolysis-dependent oxidation of NADH (e.g., Schindler et al., Science, 2000, 289, 1938-1942). Assays were conducted in 384-well plates (100 μL final volume) using 0.13 nM B-Raf (Sigma), 1.5 units pyruvate kinase, 2.1 units lactate dehydrogenase, 1 mM phosphoenol pyruvate, 0.28 mM NADH, 30.1 nM MEK (SignalChem), and 1 mM ATP in assay buffer (100 mM Tris, Ph 7.5, 15 mM MgCl2, 0.5 mM DTT, 0.1% octyl-glucoside, 0.002% (w/v) BSA, and 0.002% Triton X-100). Inhibition of B-Raf was measured by adding serial diluted test compound (final assay concentration of 1% DMSO). A decrease in absorption at 340 nm was monitored continuously for 6 h at 30° C. on a multi-mode microplate reader (BioTek). The reaction rate was calculated using the 4 to 5 h time frame. The reaction rate at each concentration of compound was converted to percent inhibition using controls (i.e., reaction with no test compound and reaction with a known inhibitor) and IC50 values were calculated by fitting a four-parameter sigmoidal curve to the data using Prism (GraphPad software).

[5] abbreviates: biochemical assay (1), read-out: ARAF (1).
[6] abbreviates: biochemical assay (1), read-out: CRAF (1).
The mark [7] stands for this setting: biochemical assay (1), read-out: BRAF VE (1).
[8] abbreviates: biochemical assay (1), read-out: BRAF (1).
Where [9] appears, read: assay version (1), read-out: ARAF (1) IC50.
Where [10] appears, read: assay version (1), read-out: CRAF (1) IC50.
The mark [11] stands for this setting: assay version (1), read-out: BRAF VE (1) IC50.
Where [12] appears, read: assay version (1), read-out: BRAF (1) IC50.

Chain of A-Raf kinase (SEQ. ID No: 1) (P10398 other isoform, or with tags, fused parts or gaps Y301D (already in the parent)/Y302D (already in the parent)): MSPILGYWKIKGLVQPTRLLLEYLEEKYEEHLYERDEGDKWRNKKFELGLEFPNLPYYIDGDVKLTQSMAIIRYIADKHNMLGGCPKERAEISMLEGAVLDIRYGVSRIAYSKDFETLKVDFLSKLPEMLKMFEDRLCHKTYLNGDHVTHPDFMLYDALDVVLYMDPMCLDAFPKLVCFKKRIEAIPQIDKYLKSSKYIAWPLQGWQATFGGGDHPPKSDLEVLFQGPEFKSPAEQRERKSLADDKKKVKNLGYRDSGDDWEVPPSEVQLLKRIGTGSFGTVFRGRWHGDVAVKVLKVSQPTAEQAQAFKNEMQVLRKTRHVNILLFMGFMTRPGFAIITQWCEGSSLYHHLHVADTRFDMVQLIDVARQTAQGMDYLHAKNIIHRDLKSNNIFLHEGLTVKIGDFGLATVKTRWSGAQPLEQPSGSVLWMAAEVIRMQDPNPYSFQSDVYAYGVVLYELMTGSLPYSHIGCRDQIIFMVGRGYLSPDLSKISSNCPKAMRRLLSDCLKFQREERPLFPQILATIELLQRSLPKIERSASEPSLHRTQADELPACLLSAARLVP
Chain of B-Raf kinase (SEQ. ID NO: 2) (P15056 416-766): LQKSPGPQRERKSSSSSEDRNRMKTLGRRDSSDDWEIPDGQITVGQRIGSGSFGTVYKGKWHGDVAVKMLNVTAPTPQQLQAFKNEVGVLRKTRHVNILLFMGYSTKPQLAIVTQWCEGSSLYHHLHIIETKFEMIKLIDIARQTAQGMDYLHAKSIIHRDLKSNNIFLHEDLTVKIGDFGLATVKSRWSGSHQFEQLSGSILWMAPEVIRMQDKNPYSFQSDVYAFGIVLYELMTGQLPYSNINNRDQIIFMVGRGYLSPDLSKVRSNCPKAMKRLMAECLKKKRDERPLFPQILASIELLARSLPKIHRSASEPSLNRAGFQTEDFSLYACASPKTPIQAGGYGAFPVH
Chain of C-Raf kinase (SEQ. ID NO: 3) (P04049 307-648 Y340D/Y341D): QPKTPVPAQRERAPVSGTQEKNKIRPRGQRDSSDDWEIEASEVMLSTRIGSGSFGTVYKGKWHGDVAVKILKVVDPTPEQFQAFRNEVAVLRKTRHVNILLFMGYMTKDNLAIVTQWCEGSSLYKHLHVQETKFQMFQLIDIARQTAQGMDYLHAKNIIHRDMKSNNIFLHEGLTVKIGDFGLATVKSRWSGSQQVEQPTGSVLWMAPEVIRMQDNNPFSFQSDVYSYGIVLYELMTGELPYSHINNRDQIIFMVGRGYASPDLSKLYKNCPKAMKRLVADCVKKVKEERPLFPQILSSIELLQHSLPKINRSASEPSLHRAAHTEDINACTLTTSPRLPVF
Chain of B-Raf (V600E) (SEQ. ID NO: 4) kinase (P15056 416-766 V600E): as the sequence (P15056 416-766) above, with V185E counted along it

For the compound `COC(=O)Nc1cc(-c2cnnc(-c3cc(NC(=O)c4ccnc(C(C)(C)C#N)c4)ccc3F)c2)ccn1` [Example 390], the IC50 in assay [1] (setting [5]) was 1 to 10 µM; in assay [2] (setting [6]), no more than 0.1 µM; in assay [3] (setting [7]) it was 0.1 to 0.5 µM; in assay [4] (setting [8]), no more than 0.1 µM.
With `CNC(=O)c1cc(-c2cncc(-c3cc(NC(=O)c4ccnc(C(C)(C)C#N)c4)c(F)cc3C)n2)ccn1` [Example 170], the IC50 is 1 to 10 µM in assay [1] (setting [9]), 0.1 to 0.5 µM in assay [2] (setting [10]), no more than 0.1 µM in assay [3] (setting [11]) and 0.1 to 0.5 µM in assay [4] (setting [12]).
Take `COC1(C(=O)Nc2cc(-c3cccc(-c4cc(NC(=O)c5ccnc(C(C)(C)C#N)c5)ccc4C)c3)ncn2)CC1` [Example 243]: the IC50 in assay [1] (setting [9]) is 1 to 10 µM; in assay [2] (setting [10]), 0.1 to 0.5 µM; in assay [3] (setting [11]), no more than 0.1 µM; in assay [4] (setting [12]) it was 0.5 to 1 µM.
`Cc1ncc(NC(=O)CC2CC(F)(F)C2)cc1-c1nccc(-c2ccnc(NC(=O)C3CC3)c2)n1` [Example 354]: the IC50 in assay [1] (setting [9]) was 1 to 10 µM; in assay [2] (setting [10]) it was 0.1 to 0.5 µM; in assay [3] (setting [11]) it was no more than 0.1 µM; in assay [4] (setting [12]), 0.5 to 1 µM.
Consider `Cc1ncc(NC(=O)C2CCC3(CC2)COC3)cc1-c1nccc(-c2ccnc(NC(=O)C3CC3)c2)n1` [Example 338], for which the IC50 in assay [1] (setting [9]) lay in the range of 1 to 10 µM; in assay [2] (setting [10]) it was 1 to 10 µM; in assay [3] (setting [11]) it was 0.5 to 1 µM; in assay [4] (setting [12]), 1 to 10 µM.
With `Cc1ccc(NC(=O)c2ccnc(C(C)(C)F)c2)cc1-c1nccc(-c2ccnc(NC(=O)C3CC3)c2)n1` [Example 232], the IC50 in assay [1] (setting [9]) was 0.1 to 0.5 µM; in assay [2] (setting [10]), no more than 0.1 µM; in assay [3] (setting [11]), no more than 0.1 µM; in assay [4] (setting [12]), no more than 0.1 µM.
Consider `Cc1ccc(NC(=O)Cn2cc(C(C)C)nn2)cc1-c1cncc(-c2cc(N)ncn2)c1` [Example 426], for which the IC50 was 1 to 10 µM in assay [1] (setting [5]), 0.5 to 1 µM in assay [2] (setting [6]), 1 to 10 µM in assay [3] (setting [7]) and 1 to 10 µM in assay [4] (setting [8]).
With `Cc1cc(C(=O)Nc2cnc(C)c(-c3nccc(-c4ccnc(NC(=O)C5CC5)c4)n3)c2)ccn1` [Example 296], the IC50 in assay [1] (setting [9]) is 1 to 10 µM; in assay [2] (setting [10]), 0.1 to 0.5 µM; in assay [3] (setting [11]), no more than 0.1 µM; in assay [4] (setting [12]), 0.1 to 0.5 µM.
With `Cc1ncc(NC(=O)C2CNCCO2)cc1-c1cccc(-c2cc(NC(=O)C3CC3)ncn2)c1` (stereo not drawn) [Example 350], the IC50 in assay [1] (setting [9]), in assay [2] (setting [10]), in assay [3] (setting [11]) and in assay [4] (setting [12]) was 1 to 10 µM in each case.
Regarding `Cc1ncc(NC(=O)CN2CCOCC2)cc1-c1cccc(-c2cc(NC(=O)C3CC3)ncn2)c1` [Example 353], the IC50 in assay [1] (setting [9]) lay within 1 to 10 µM; in assay [2] (setting [10]), 0.5 to 1 µM; in assay [3] (setting [11]) it was 0.1 to 0.5 µM; in assay [4] (setting [12]), 1 to 10 µM.
Consider `Cc1ccc(NC(=O)c2cc(C(F)(F)F)ccn2)cc1-c1cncc(-c2ccnc(NC(=O)C3CC3)c2)n1` [Example 167], for which the IC50 in assay [1] (setting [9]) is 1 to 10 µM; in assay [2] (setting [10]) it was no more than 0.1 µM; in assay [3] (setting [11]), no more than 0.1 µM; in assay [4] (setting [12]), no more than 0.1 µM.
With `Cc1ncc(NC(=O)C2CCOC2)cc1-c1ccnc(-c2ccnc(NC(=O)C3CC3)c2)n1` (stereo not drawn) [Example 337], the IC50 in assay [1] (setting [9]), in assay [2] (setting [10]), in assay [3] (setting [11]) and in assay [4] (setting [12]) was 1 to 10 µM throughout.
`Cc1ncc(NC(=O)C2CCN(C)C2)cc1-c1nccc(-c2ccnc(NC(=O)C3CC3)c2)n1` (stereo not drawn) [Example 334]: the IC50 in assay [1] (setting [9]), in assay [2] (setting [10]), in assay [3] (setting [11]) and in assay [4] (setting [12]) was 1 to 10 µM each time.
`COC(C)(C)C(=O)Nc1cc(-c2cccc(-c3cc(NC(=O)c4ccnc(C(C)(C)C#N)c4)cnc3C)c2)ncn1` [Example 208]: the IC50 in assay [1] (setting [9]) fell in the range of 1 to 10 µM; in assay [2] (setting [10]) it was 0.5 to 1 µM; in assay [3] (setting [11]) it was 0.1 to 0.5 µM; in assay [4] (setting [12]), 1 to 10 µM.
As to `Cc1ccc(NC(=O)c2ccnc(C3(C#N)CC3)c2)cc1-c1cncc(-c2ccnc(NC(=O)C3CC3)c2)n1` [Example 183], the IC50 in assay [1] (setting [9]) is 0.1 to 0.5 µM; in assay [2] (setting [10]) it was no more than 0.1 µM; in assay [3] (setting [11]), no more than 0.1 µM; in assay [4] (setting [12]), no more than 0.1 µM.
Turning to `Cc1ncc(NC(=O)c2ccnc(C(C)(C)C#N)c2)cc1-c1ccnc(-c2ccnc(NC(=O)C(C)(C)C)c2)c1` [Example 228], the IC50 was 1 to 10 µM in assay [1] (setting [9]), 0.1 to 0.5 µM in assay [2] (setting [10]), no more than 0.1 µM in assay [3] (setting [11]) and 0.1 to 0.5 µM in assay [4] (setting [12]).
On to `Cc1ncc(NC(=O)C2CCOCC2)cc1-c1nccc(-c2ccnc(NC(=O)C3CC3)c2)n1` [Example 339], for which the IC50 in assay [1] (setting [9]) fell in the range of 1 to 10 µM; in assay [2] (setting [10]), 1 to 10 µM; in assay [3] (setting [11]), 0.1 to 0.5 µM; in assay [4] (setting [12]), 1 to 10 µM.
Turning to `CNC(=O)c1cc(-c2cccc(-c3cc(NC(=O)c4ccnc(C(C)(C)C#N)c4)ccc3C)n2)ccn1` [Example 234], the IC50 is 1 to 10 µM in assay [1] (setting [9]), no more than 0.1 µM in assay [2] (setting [10]), no more than 0.1 µM in assay [3] (setting [11]) and no more than 0.1 µM in assay [4] (setting [12]).
For the compound `Cc1ncc(NC(=O)C23CCC(C#N)(CC2)CC3)cc1-c1cccc(-c2ccnc(NC(=O)C3CC3)c2)n1` [Example 342], the IC50 in assay [1] (setting [9]), in assay [2] (setting [10]), in assay [3] (setting [11]) and in assay [4] (setting [12]) was 1 to 10 µM each time.
Take `Cc1ncc(NC(=O)C2CCOC2)cc1-c1nccc(-c2ccnc(NC(=O)C3CC3)c2)n1` (stereo not drawn) [Example 335]: the IC50 in assay [1] (setting [9]), in assay [2] (setting [10]), in assay [3] (setting [11]) and in assay [4] (setting [12]) was 1 to 10 µM in each case.
With `COC(C)(C)C(=O)Nc1cc(-c2cccc(-c3cc(NC(=O)c4ccnc(C(C)(C)C#N)c4)ccc3C)c2)ncn1` [Example 211], the IC50 is 1 to 10 µM in assay [1] (setting [9]), 0.5 to 1 µM in assay [2] (setting [10]), no more than 0.1 µM in assay [3] (setting [11]) and 0.5 to 1 µM in assay [4] (setting [12]).
